The nature of the assay: Proton relaxing times (T1, T2) and proton relaxivity, Minispec 20 MHz, 40° C. The class given is physicochemical. To be noted: for T1 relaxing time / T2 relaxing time: 20 MHz, 40° C. How it is done:
The proton relativity of poly[Gd(DTPA-PDA)2]35 and poly[Gd(DTPA-PDA)5]14 obtained in Example 1 was compared with that of conventional MRI contrast medium. As the conventional MRI contrast medium, used was Gd-DTPA (Magnevist). The proton relaxivity was determined by using Minispec (NMS 120/125/10VTS, manufactured by Japan Bruker) at frequency at 20 MHz and temperature at 40° C. T1 was determined using an IR (inversion recovery) method under the conditions of initial τ of 2 ms, τ magnification of 1.7 and determination points of 20. T2 was determined using a CPMG (Carr-Purcell-Meiboon-Gill) method under the conditions of τ of 1 ms and determination points of 50.
Respective proton relaxing times (T1 and T2) are shown in Table 1, and the proton relaxivity (R1 and R2) calculated from said proton relaxing time are shown in Table 2.

Molecules are shown by their SMILES.

As for `O=C([O-])CN(CCN(CC(=O)[O-])CC(=O)O)CCN(CC(=O)[O-])CC(=O)O.[Gd+3]` [Gd-DTPA], the T1 relaxing time came out at 1503 ms (Gd concentration 0.1 mM), 247 ms (Gd concentration 1 mM), 53 ms (Gd concentration 5 mM) and 26 ms (Gd concentration 10 mM). The T2 relaxing time runs as follows: (Gd concentration 0.1 mM) 1339 ms; (Gd concentration 1 mM) 220 ms; (Gd concentration 5 mM) 47 ms; (Gd concentration 10 mM) 24 ms. Besides, for the setting “calculated from proton relaxing time”, the “proton relaxivity R1” value is recorded as 3.81 1 mmol^−1 sec^−1.

Source of the values: patent publication US6372194B1, “MRI contrast media recognizing minor environmental changes” (Nihon Schering K.K., priority 1997, dated 2002).
